24 molecules from article PMC6509344, “Novel CMKLR1 Inhibitors for Application in Demyelinating Disease” (Scientific Reports, 2019) can be followed below.

In one test the target is T1, CMKLR1 (Homo sapiens, UniProt Q99788).
T1 construct: host or cells: CHO-K1 (PathHunter CMKLR1 β-Arrestin cells)
T1 sequence (Q99788 1-373): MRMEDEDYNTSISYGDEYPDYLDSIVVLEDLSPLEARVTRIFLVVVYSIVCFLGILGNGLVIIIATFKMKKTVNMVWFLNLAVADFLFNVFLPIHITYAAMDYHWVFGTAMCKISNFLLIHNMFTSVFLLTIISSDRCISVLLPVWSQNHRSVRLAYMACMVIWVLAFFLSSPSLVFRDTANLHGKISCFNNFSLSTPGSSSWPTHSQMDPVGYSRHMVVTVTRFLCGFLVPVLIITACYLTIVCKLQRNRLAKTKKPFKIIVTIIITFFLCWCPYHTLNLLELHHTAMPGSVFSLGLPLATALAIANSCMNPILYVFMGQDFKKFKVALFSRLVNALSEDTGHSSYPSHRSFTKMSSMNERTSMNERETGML
The experiment in a line: β-arrestin recruitment assay (chemerin-dependent β-arrestin2 signaling). The test is classed as cell-based. The note with it: for IC50: CMKLR1-CHO-β-Arrestin cells, 20 nM chemerin, read-out: β-arrestin IC50 mean ± SEM (n). As to the method:
DiscoverX PathHunter® CHO-K1 CMKLR1 β-Arrestin Cells were grown in RPMI lacking phenol red (Gibco, Life Technologies), supplemented with L-glutamine, penicillin-streptomycin, sodium pyruvate, non-essential amino acid, BCS, hygromycin, and G418-sulfate. CMKLR1-CHO-β-Arrestin cells were seeded in 96 well plates at 1 × 10^5 cell/ml- 100 ul/well and incubated overnight at 37 °C, 5% CO2. […] (α-NETA and test compounds were reconstituted in DMSO; final DMSO concentration in each well was 0.1%). After 10 min, 5 ul of recombinant human chemerin (R&D Systems) at a final concentration of 20 nM was added to each well. Plates were incubated for 90 min at 37 °C, 5% CO2. Media was then removed and 50 ul of chemiluminescent substrate (Tropix Gal-Screen, Applied Biosciences) was added. The plate was incubated for 1 hr at RT and luminescence was detected using the SpectraMax M5 plate reader (Molecular Devices). For each independent trial (single replicate dose curves), data was normalized to the maximum signal per compound tested and an IC50 value was generated using GraphPad Prism software. The average IC50 value for n independent trials (as specified in the table) is reported.
For orientation: Recruitment of arrestin is a read-out of receptor activation apart from second messengers.

In a further test the test system is (hu)CMKLR1 L1.2 cells. The test is described as follows: Chemotaxis assay toward huChemerin. The format is cell-based, human. The note with it: for IC50: (hu)CMKLR1 L1.2 cells migrating toward huChemerin, 2 h, read-out: Chemotaxis IC50 mean ± SEM (n). As to the method: (hu)CMKLR1 transfectants (generated in L1.2 pre-B cell lymphoma cells) were grown in RPMI 1640 (Corning) supplemented with L-glutamine, penicillin-streptomycin, and 10% BCS and G418-sulfate (KSE Scientific). DiscoverX PathHunter® CHO-K1 CMKLR1 β-Arrestin Cells were grown in RPMI lacking phenol red (Gibco, Life Technologies), supplemented with L-glutamine, penicillin-streptomycin, sodium pyruvate, non-essential amino acid, BCS, hygromycin, and G418-sulfate.
(hu)CMKLR1 L1.2 cells at 1 × 10^6 cell/ml were treated with 5 mM sodium butyrate (Sigma) overnight to induce hCMKLR1 expression. The next day, cells were washed in migration media (RPMI + 0.5%BSA) and resuspended at 1.5–3 × 10^6 cell/ml. Cells were pre-incubated at RT for 10 min with various concentrations of α-NETA or test compounds (α-NETA and test compounds were reconstituted in DMSO; final DMSO concentration in each well was 0.1%). 100 ul of cells were added to the upper chamber of a 24-well transwell plate (5 um pore size, Costar). Cells were allowed to migrate toward huChemerin ([…] in migration media, bottom chamber) for 2 h, 37 °C, 5% CO2. The number of migrated cells was quantified by flow cytometry (BD LSR2), and live cells were distinguished based on FSC × SSC properties. The background for this assay was typically low with 0 cells migrating to the buffer alone. For each independent trial, data was normalized to the maximum migration per compound tested and an IC50 value was generated using GraphPad Prism software. The average IC50 value for n independent trials (as specified in the table) is reported.

The subject of the next test is C57BL/6 mice with EAE. The test is described as follows: Experimental autoimmune encephalomyelitis (EAE), MOG35–55/CFA immunization. The following applies: for Day of onset (Mean ± SEM) / Maximum Score (Mean ± SEM) / AUC (Mean ± SEM) of clinical score: Table 4, 10 mg/kg daily to D21, n = 8; for Maximum Score (Mean ± SEM): clinical score 0-5; for AUC (Mean ± SEM) of clinical score: mean clinical score x day. The test is classed as in vivo, mouse. As for the experimental part:
C57BL/6 mice were purchased from The Jackson Laboratory. […] Animal experiments were conducted in accordance with approved Veterans Affairs, National Institutes of Health, and Institutional Animal Care and Use Committee guidelines.
CFA consisted of 5 mg/ml mTB (Mycobacterium-tuberculosis H37 Ra, BD Difco) in IFA (Incomplete Freund’s Adjuvant, Sigma). MOG35–55 was reconstituted at 2 mg/ml in PBS. Mice also received 200 ng pertussis toxin (List Biological Laboratories, Inc) by i.p. injection at the time of immunization and two days later. […] For a direct comparison to α-NETA, the DMF and compound doses were also 10 mg/kg in 10% captisol. Mice were monitored daily for clinical disease and scored (0 = normal/healthy, 1 = limp tail, 2 = hindlimb weakness, 3 = hindlimb paralysis, 4 = hindlimb and forelimb paralysis, 5 = moribund/dead).

Where [1] appears, read: Table 3 quaternary ammonium salts.

For orientation: IC50 means the concentration at which inhibition is half-maximal.

Where a name gives a salt, the structure may show the parent alone. Read-outs that look alike come from different tables or passages of the source.

In the case of `COc1cccc(OC)c1C(=O)CC[N+](C)(C)C.[I-]` [Compound 30], the “activity in β-arrestin2 assay (in words)” value at CMKLR1 is “highly active”. Also, the IC50 at CMKLR1 (setting [1]) was found to be 2.1 ± 1.1 µM. Also, in the test with (hu)CMKLR1 L1.2 cells, the “activity in chemotaxis assay (in words)” value is on record as “highly active” and the IC50 was 6.8 µM.
As to `COC(=O)/C=C/C(=O)OC` [Tecfidera, dimethyl fumarate, reference compound], in the test on C57BL/6 mice with EAE (Fig. 1 study, 10 mg/kg daily in 10% captisol, s.c., d29 onset assumed for 2 α-NETA mice), the “day of EAE onset (mean ± SEM)” value amounted to 14 ± 2 days.
Regarding `C[N+](C)(C)CCC(=O)c1ccccc1.[I-]` [Compound 24], the IC50 at CMKLR1 (setting [1]) was 5.6 ± 0.7 µM. In addition, in the test with (hu)CMKLR1 L1.2 cells, the “activity in chemotaxis assay (in words)” value is reported as “did not show any activity” and the IC50 was > 100 µM.
Take `CCN(C)CCC(=O)c1ccc2ccccc2c1` [Compound 9]: on CMKLR1 (Table 2 tertiary amines), the IC50 was found to be 39.6 µM.
For `CN(C)CCC(=O)C1CCCCC1` [Compound 20], the “activity in β-arrestin2 assay (in words)” value at CMKLR1 was “complete loss of activity”. Moreover, the IC50 on CMKLR1 (Table 2 tertiary amines) was > 100 µM.
In the case of `COc1cccc(C(=O)CCN(C)C)c1` [Compound 18], at CMKLR1 (Table 2 tertiary amines), the IC50 is 64 µM.
Still for that read-out and setting: in the case of `CCCCN(C)CCC(=O)c1ccc2ccccc2c1` [Compound 10] it was 44.5 µM.
Turning to `C[N+](C)(C)CCC(=O)C1CCCCC1` [Compound 25], the IC50 on CMKLR1 (setting [1]) was 11.9 µM; with (hu)CMKLR1 L1.2 cells, > 100 µM.
For the molecule `COc1ccccc1C(=O)CCN(C)C` [Compound 16], the IC50 at CMKLR1 (Table 2 tertiary amines) is > 100 µM.
`COc1ccc(C(=O)CCN(C)C)cc1` [Compound 17]: the IC50 at CMKLR1 (Table 2 tertiary amines) is > 100 µM.
As for `COc1cccc(C(=O)CC[N+](C)(C)C)c1` [Compound 28], the IC50 at CMKLR1 (setting [1]) stood at 3.8 ± 1.7 µM; with (hu)CMKLR1 L1.2 cells, 14.6 ± 4.8 µM.
For `CCN(CC)CCC(=O)c1ccc2ccccc2c1` [Compound 8], the IC50 at CMKLR1 (Table 2 tertiary amines) was determined as 71.3 µM.
As for `COc1ccc2cc(C(=O)CC[N+](C)(C)C)ccc2c1` [Compound 32], the results for the IC50 on CMKLR1 (setting [1]) and with (hu)CMKLR1 L1.2 cells were 1.5 ± 0.3 µM and 20 ± 6.2 µM, respectively.
With `COc1cccc(OC)c1C(=O)CCN(C)C` [Compound 19], at CMKLR1 (Table 2 tertiary amines), the IC50 is 10.3 ± 4.5 µM.
For the molecule `COc1ccc(C(=O)CC[N+](C)(C)C)cc1.[I-]` [Compound 27], the “activity in β-arrestin2 assay (in words)” value on CMKLR1 was “highly active”. Also, on CMKLR1 (setting [1]), the IC50 came out at 1.9 ± 0.2 µM. For the same molecule, in the test on C57BL/6 mice with EAE, the “Day of onset (Mean ± SEM)” value came to 16.0 ± 0.9, the “Maximum Score (Mean ± SEM)” value was 2.1 ± 0.1^¶ and the “AUC (Mean ± SEM) of clinical score” value turned out to be 24.3 ± 4.2. For the same molecule, in the test with (hu)CMKLR1 L1.2 cells, the “activity in chemotaxis assay (in words)” value is on record as “highly active” and the IC50 came out at 4.5 ± 1.5 µM.
For `C[N+](C)(C)CCS(=O)(=O)c1ccccc1` [Compound 35], at CMKLR1, the “activity in β-arrestin2 assay (in words)” value is “inactive”.
Turning to `COc1ccc(C(=O)CC[N+](C)(C)C)c(OC)c1` [Compound 29], the IC50 on CMKLR1 (setting [1]) stood at 4.8 ± 1.6 µM; with (hu)CMKLR1 L1.2 cells, 17.4 ± 2.2 µM.
For `COc1ccc2ccccc2c1C(=O)CC[N+](C)(C)C` [Compound 33] the same measures were 0.6 ± 0.3 µM and 10.7 µM.
In the case of `CN(C)CCC(=O)c1ccc2ccccc2c1` [Compound 7], the IC50 on CMKLR1 (Table 2 tertiary amines) worked out at 18.5 µM.
On the same count and under the same terms, in the case of `COc1ccc2cc(C(=O)CCN(C)C)ccc2c1` [Compound 11] it was > 100 µM.
Regarding `COc1cc(OC)cc(C(=O)CC[N+](C)(C)C)c1` [Compound 31], the IC50 is 6 ± 2.2 µM at CMKLR1 (setting [1]) and > 100 µM in the test with (hu)CMKLR1 L1.2 cells.
Consider `COc1ccc2ccccc2c1C(=O)CCN(C)C` [Compound 6], for which the IC50 at CMKLR1 (Table 2 tertiary amines) turned out to be 6.2 ± 2.5 µM. Moreover, in the test on C57BL/6 mice with EAE, the “Day of onset (Mean ± SEM)” value came out at 14.5 ± 0.4, the “Maximum Score (Mean ± SEM)” value came out at 2.4 ± 0.2 and the “AUC (Mean ± SEM) of clinical score” value worked out at 25.2 ± 4.0.
For `C[N+](C)(C)CCC(=O)c1ccc2ccccc2c1` [Compound 23], the values for the IC50 on CMKLR1 (setting [1]) and in the test with (hu)CMKLR1 L1.2 cells were 2.5 ± 0.9 µM and 24.1 µM, respectively.
With `COc1ccccc1C(=O)CC[N+](C)(C)C.[I-]` [Compound 26], on CMKLR1, the “activity in β-arrestin2 assay (in words)” value is listed as “highly active”. The IC50 on CMKLR1 (setting [1]) worked out at 2.9 ± 1.6 µM; in the test on (hu)CMKLR1 L1.2 cells, 7.2 µM. For the same molecule, the “activity in chemotaxis assay (in words)” value with (hu)CMKLR1 L1.2 cells is reported as “highly active”.
